# According to article PMC13372822 (The EMBO Journal, 2026):
# Residue numbers refer to the chain shown, from its start.
# Assays:
# [1] = molecular target: T1, SUCR1 mutants (variant named in the endpoint) (Homo sapiens, UniProt Q9BXA5, F175L); assay: Calcium mobilization assay, SUCR1 mutants in HEK293 stably expressing Gα16; format: cell-based; conditions: for EC50: SUCR1 F175L;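 as to Emax: percent of the maximal response to succinate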
# T1 construct: The full-length human SUCR1 and mutations were fused after the HA signal peptide and Flag tag; HA signal peptide (N); Flag (N); expressed in transfected cells; host or cells: HEK293 stably expressing Gα16 (pcDNA6.0, transient electroporation)
# T1 sequence (Q9BXA5 1-334 F175L): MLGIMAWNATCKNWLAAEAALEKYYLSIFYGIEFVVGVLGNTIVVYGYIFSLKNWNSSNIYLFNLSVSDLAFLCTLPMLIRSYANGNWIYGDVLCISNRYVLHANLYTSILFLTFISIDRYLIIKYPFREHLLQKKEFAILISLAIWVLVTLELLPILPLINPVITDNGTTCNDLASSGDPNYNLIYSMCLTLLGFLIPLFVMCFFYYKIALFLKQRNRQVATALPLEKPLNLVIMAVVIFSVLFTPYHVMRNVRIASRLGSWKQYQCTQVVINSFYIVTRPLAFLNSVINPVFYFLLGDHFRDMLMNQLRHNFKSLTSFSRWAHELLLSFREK
# Protocol: (§1) The full-length human SUCR1 and mutations were fused after the HA signal peptide and Flag tag. The constructs were cloned into pcDNA6.0 vector for HEK293 system.
# (§2) HEK293 cells were obtained from ATCC (Manassas, VA, USA) and cultured in DMEM supplemented with 10% (v/v) FBS, 100 mg/L penicillin, and 100 mg/L streptomycin in 5% CO2 at 37 °C. For transient transfection, ~2.5 × 10^6 cells were mixed with 2 µg plasmids in 200 µL transfection buffer, and electroporation was carried out with a Scientz-2C electroporation apparatus (Scientz Biotech, Ningbo, China). The experiments were carried out 24 h after transfection. HEK293 cell lines stably expressing Gα16 were constructed by our laboratory.
# (§3) For OXGR1, plasmids were transfected into HEK293 (other receptors were transfected into HEK293 stably expressing Gα16) and seeded at a density of 4 × 10^4 per well into 96-well culture plates and incubated for 24 h at 37 °C in 5% CO2. The next day, Cells were incubated with 2 μM/L Fluo-4 AM in HBSS supplemented with 5.6 mM/L D-glucose and 250 μM/L sulfinpyrazone at 37 °C for 45 min. […] Three independent measurements were repeated, i.e., three different transfections, with three technical replicates performed for each experiment. EC50 and Emax values for each curve were calculated by Prism 8.0 software (GraphPad Software).
# [2] = molecular target: T2, SUCR1 mutants (variant named in the endpoint) (Homo sapiens, UniProt Q9BXA5, F175L/I157M); assay: as above; format: cell-based
# T2 construct: The full-length human SUCR1 and mutations were fused after the HA signal peptide and Flag tag; HA signal peptide (N); Flag (N); expressed in transfected cells; host or cells: HEK293 stably expressing Gα16 (pcDNA6.0, transient electroporation)
# T2 sequence (Q9BXA5 1-334 I157M/F175L): T1 sequence (Q9BXA5 1-334 F175L) with I157M
# Protocol: as §1, §2, §3
# [3] = molecular target: T3, SUCR1 mutants (variant named in the endpoint) (Homo sapiens, UniProt Q9BXA5, F285A); assay: as above; format: cell-based
# T3 construct: The full-length human SUCR1 and mutations were fused after the HA signal peptide and Flag tag; HA signal peptide (N); Flag (N); expressed in transfected cells; host or cells: HEK293 stably expressing Gα16 (pcDNA6.0, transient electroporation)
# T3 sequence (Q9BXA5 1-334 F285A): T1 sequence (Q9BXA5 1-334 F175L) with L175F, F285A
# Protocol: as §1, §2, §3
# [4] = molecular target: T4, SUCR1 mutants (variant named in the endpoint) (Homo sapiens, UniProt Q9BXA5, F285A/F72Y/L102F); assay: as above; format: cell-based
# T4 construct: The full-length human SUCR1 and mutations were fused after the HA signal peptide and Flag tag; HA signal peptide (N); Flag (N); expressed in transfected cells; host or cells: HEK293 stably expressing Gα16 (pcDNA6.0, transient electroporation)
# T4 sequence (Q9BXA5 1-334 F72Y/L102F/F285A): T1 sequence (Q9BXA5 1-334 F175L) with F72Y, L102F, L175F, F285A
# Protocol: as §1, §2, §3
# [5] = molecular target: T5, SUCR1 mutants (variant named in the endpoint) (Homo sapiens, UniProt Q9BXA5, F285A/F72Y/Y248F); assay: as above; format: cell-based
# T5 construct: The full-length human SUCR1 and mutations were fused after the HA signal peptide and Flag tag; HA signal peptide (N); Flag (N); expressed in transfected cells; host or cells: HEK293 stably expressing Gα16 (pcDNA6.0, transient electroporation)
# T5 sequence (Q9BXA5 1-334 F72Y/Y248F/F285A): T1 sequence (Q9BXA5 1-334 F175L) with F72Y, L175F, Y248F, F285A
# Protocol: as §1, §2, §3
# [6] = molecular target: T6, SUCR1 mutants (variant named in the endpoint) (Homo sapiens, UniProt Q9BXA5, F72Y); assay: as above; format: cell-based
# T6 construct: The full-length human SUCR1 and mutations were fused after the HA signal peptide and Flag tag; HA signal peptide (N); Flag (N); expressed in transfected cells; host or cells: HEK293 stably expressing Gα16 (pcDNA6.0, transient electroporation)
# T6 sequence (Q9BXA5 1-334 F72Y): T1 sequence (Q9BXA5 1-334 F175L) with F72Y, L175F
# Protocol: as §1, §2, §3
# [7] = tested on: mock-transfected HEK293 cells; assay: Calcium assay in mock-transfected (empty vector) HEK293 cells; format: cell-based
# From the text: Figure. R3 | Activity of the compounds on OXGR1 using calcium assays.
# Concentration-response curves of the four agonists in activating OXGR1 through the calcium assays. HEK293 cells were transfected with OXGR1 or empty vector by electroporation.
# Cells were then loaded with Fluo-4 AM and intracellular calcium changes after stimulation with different compounds were monitored. Responses were normalized to 100% for the maximal response of each compound on OXGR1. Data are mean ± S.E.M. from three independent experiments (n = 3), with three technical replicates performed for each […]
# (1 picture or pasted object on this page, not shown here)
# [8] = molecular target: OXGR1 (Homo sapiens, UniProt Q96P68); assay: Calcium mobilization assay (Fluo-4 AM), wild-type OXGR1 in HEK293; conditions: for signal at concentrations exceeding the reported range: bell-shaped response curve; for activity in OXGR1-transfected HEK293 cells: in words
# Protocol: as §1, §2, §3
# [9] = HEK293, OXGR1 WT, each ligand normalized to WT (100%)
# [10] = HEK293, OXGR1 WT, normalized to the maximal response elicited by AKG (100%)
smiles,measurement,setting,value
"O=C(O)CCC(=O)C(=O)O [AKG, α-ketoglutarate]",Emax,[1]; HEK293,3.5 ± 1%
same,Emax,[2]; HEK293,-6.6 ± 3%
same,Emax,[3]; HEK293,1.7 ± 3%
same,Emax,[4]; HEK293,5 ± 1%
same,Emax,[5]; HEK293,19 ± 2%
same,Emax,[6]; HEK293,4.1 ± 2%
same,activity in mock-transfected cells,[7],no activity
same,Emax,[8]; HEK293,100 ± 11%
same,signal at concentrations exceeding the reported range,[8],decrease in signal
same,activity in OXGR1-transfected HEK293 cells,[8],robust activity
"C=C(CC(=O)O)C(=O)O [ITA, itaconate]",EC50,[1],0.34 ± 0.3 mM
same,ITA responsiveness of SUCR1-F175L,[1]; in words,partial ITA responsiveness
same,Emax,"[2]; HEK293, SUCR1 F175L-I157M, Emax relative to the SUC",-3.1 ± 4%
same,Emax,"[3]; HEK293, SUCR1 F285A, Emax relative to the SUC",6.3 ± 3%
same,Emax,"[4]; HEK293, SUCR1 F72Y-L102F-F285A, Emax relative to the SUC",43 ± 5%
same,Emax,"[5]; HEK293, SUCR1 F72Y-F285A-Y248F, Emax relative to the SUC",2.2 ± 2%
same,Emax,"[6]; HEK293, SUCR1 F72Y, Emax relative to the SUC",3 ± 3%
same,activity in mock-transfected cells,[7],no activity
same,EC50,"[8]; EC50, OXGR1 WT, Gq-mediated calcium signaling (Fig. 1D, Appendix Table S1)",0.083 mM
same,Emax,[8]; [9],100 ± 10%
same,Emax,[8]; [10],117 ± 4%
same,signal at concentrations exceeding the reported range,[8],decrease in signal
same,activity in OXGR1-transfected HEK293 cells,[8],robust activity
"O=C(O)CCC(=O)O [SUC, succinate]",EC50,[1],0.018 ± 0.003 mM
same,EC50,[2]; SUCR1 F175L-I157M,0.15 ± 0.009 mM
same,EC50,[3]; SUCR1 F285A,3.6 ± 0.8 mM
same,EC50,[4]; SUCR1 F72Y-L102F-F285A,3.9 ± 1.3 mM
same,EC50,[5]; SUCR1 F72Y-F285A-Y248F,2.7 ± 0.78 mM
same,EC50,[6]; SUCR1 F72Y,1.8 ± 0.3 mM
same,activity in mock-transfected cells,[7],no activity
same,Emax,[8]; [9],100 ± 4%
same,Emax,[8]; [10],154 ± 4%
same,activity in OXGR1-transfected HEK293 cells,[8],robust activity
